Reference: the CheMixHub viscosity set
Where “and” joins values, the source holds several entries; their conditions need not be identical. Identical values can stand only once.

Experiments:
[1] = xn = mol fraction of the nth substance listed

CCC[N+](C)(C)C.O=S(=O)([N-]S(=O)(=O)C(F)(F)F)C(F)(F)F
101.3 kPa
Settings | viscosity [mPa·s]
293.15 K | 102
298.15 K | 79.4
303.15 K | 63.2
308.15 K | 51.1
313.15 K | 42
318.15 K | 35
323.15 K | 29.5

ClCCCl
Settings | viscosity
293.15 K, 101 kPa | 0.8397 mPa·s
298 K, 101.33 kPa | 0.77 mPa·s
303 K, 101.33 kPa | 0.722 mPa·s
303.15 K, 101.3 kPa | 0.73 mPa·s
303.15 K, 101.33 kPa | 0.7295 mPa·s and 0.7295 mPa·s
308.15 K, 100 kPa | 0.682 mPa·s
308.15 K, 101 kPa | 0.6929 mPa·s
313 K, 101.33 kPa | 0.639 mPa·s
323 K, 101.33 kPa | 0.573 mPa·s
323.15 K, 101 kPa | 0.5724 mPa·s

CC1CCCC(C)C1=O (stereo not drawn)
100 kPa
Settings | viscosity [mPa·s]
303.15 K | 3.709
308.15 K | 3.237
313.15 K | 2.765

C1CCCCCC1
Settings | viscosity [mPa·s]
303.15 K, 101 kPa | 1.239

CCC(=O)N(CC)CC
Settings | viscosity [mPa·s]
298.16 K, 101 kPa | 1.241

CCNc1ccccc1
Settings | viscosity
293.15 K, 101 kPa | 2.282 mPa·s
298 K, 101 kPa | 1.947 mPa·s
298 K, 101.3 kPa | 1.952 mPa·s
298.15 K, 101 kPa | 1.971 mPa·s and 1.75 mPa·s and 1.959 mPa·s
303 K, 101 kPa | 1.741 mPa·s
303 K, 101.3 kPa | 1.71 mPa·s
303.15 K, 100 kPa | 1.742 mPa·s
308 K, 101 kPa | 1.549 mPa·s
308 K, 101.3 kPa | 1.559 mPa·s
308.15 K, 101.33 kPa | 1.5 mPa·s
313 K, 101 kPa | 1.392 mPa·s
313 K, 101.3 kPa | 1.389 mPa·s
313.15 K, 101 kPa | 1.405 mPa·s and 1.391 mPa·s and 1.34 mPa·s
318 K, 101 kPa | 1.263 mPa·s
318 K, 101.3 kPa | 1.251 mPa·s
318.15 K, 101 kPa | 1.264 mPa·s
323.15 K, 101 kPa | 1.146 mPa·s and 1.07 mPa·s and 1.124 mPa·s

CC(=O)O
Settings | viscosity
293.15 K, 101.32 kPa | 1.226 mPa·s
293.15 K, 101.33 kPa | 1.226 mPa·s and 1.222 mPa·s
298.15 K, 101.3 kPa | 1.155 mPa·s and 1.27 mPa·s
303.15 K, 100 kPa | 0.982 mPa·s
303.15 K, 101.33 kPa | 1.346 mPa·s and 0.98 mPa·s
308.15 K, 101.3 kPa | 1.08 mPa·s
308.15 K, 101.32 kPa | 0.9795 mPa·s
313.15 K, 101.3 kPa | 0.931 mPa·s
318.15 K, 101.32 kPa | 0.8536 mPa·s
323.15 K, 101.3 kPa | 0.823 mPa·s and 0.883 mPa·s

CCCCCC[n+]1ccn(C)c1.[I-]
101 kPa
Settings | viscosity [mPa·s]
293.15 K | 2633
298.15 K | 1742
303.15 K | 1175
308.15 K | 801.8
313.15 K | 563.5
318.15 K | 404.7
323.15 K | 278.8

CCCCCCCC[n+]1ccccc1.F[B-](F)(F)F
101.3 kPa
Settings | viscosity [mPa·s]
293.15 K | 319.7
298.15 K | 233.5
303.15 K | 171.9
308.15 K | 134.8
313.15 K | 105.7
318.15 K | 81.56
323.15 K | 64.89

CCCn1cc[n+](C)c1C.F[B-](F)(F)F
101 kPa
Settings | viscosity [mPa·s]
298.15 K | 377.3
303.15 K | 271.9
308.15 K | 202
313.15 K | 152.2
318.15 K | 117.4
323.15 K | 92.29

O=S(=O)(O)O
101 kPa
Settings | viscosity [mPa·s]
293.15 K | 28.7
313.15 K | 16
323.15 K | 12.5

ClCCl
Settings | viscosity
293.15 K, 101 kPa | 0.428 mPa·s
298 K, 101 kPa | 0.433 mPa·s
298.15 K, 101.33 kPa | 0.38 mPa·s and 0.406 mPa·s and 0.401 mPa·s
303.15 K, 101.3 kPa | 0.394 mPa·s
303.15 K, 101.33 kPa | 0.369 mPa·s
308.15 K, 101.33 kPa | 0.362 mPa·s

C[Si]1(C)O[Si](C)(C)O[Si](C)(C)O[Si](C)(C)O1
viscosity [mPa·s]
Settings | 298.15 K | 308.15 K | 318.15 K
101 kPa | 2.19 | 1.806 | 1.514
103 kPa | 2.068 | 1.71 | 1.435

CCOC=O
viscosity
Settings | 293.15 K | 298.15 K | 303.15 K | 308.15 K | 313.15 K | 318.15 K | 323.15 K
100 kPa | – | 0.38 mPa·s and 0.38 mPa·s | 0.36 mPa·s and 0.36 mPa·s | – | 0.328 mPa·s | 0.31 mPa·s and 0.31 mPa·s | 0.29 mPa·s and 0.29 mPa·s
101 kPa | 0.418 mPa·s | 0.3972 mPa·s | 0.378 mPa·s | 0.361 mPa·s | – | – | 0.308 mPa·s
101.33 kPa | – | 0.379 mPa·s | – | – | – | – | –

C[n+]1ccn(CCO)c1.O=S(=O)([O-])C(F)(F)C(F)(F)C(F)(F)C(F)(F)F
101 kPa
Settings | viscosity [mPa·s]
298.15 K | 831.6
308.15 K | 411.4
318.15 K | 224

C1CCC2=[NH+]CCCN2CC1.c1c[n-]cn1
Settings | viscosity [mPa·s]
298.15 K, 100 kPa | 34.34

CC(=O)O + CC(C)O
viscosity [mPa·s], [1], 101 kPa
Settings | x1 = 0.00598 | x1 = 0.02919 | x1 = 0.04037 | x1 = 0.0567 | x1 = 0.1073 | x1 = 0.1528 | x1 = 0.1938 | x1 = 0.2308
298.15 K | 2.633 | 2.564 | 2.503 | 2.435 | 2.286 | 2.221 | 2.133 | 2.058
308.15 K | 1.962 | 1.906 | 1.877 | 1.843 | 1.75 | 1.696 | 1.651 | 1.621
318.15 K | 1.521 | 1.491 | 1.474 | 1.454 | 1.4 | 1.363 | 1.33 | 1.306

CC(=O)O + CCOC(C)=O
viscosity [mPa·s], [1], 101 kPa
Settings | 298.15 K | 313.15 K
x1 = 0.1049 | 0.459 | –
x1 = 0.207 | 0.4949 | –
x1 = 0.3037 | 0.5331 | –
x1 = 0.399 | 0.5762 | –
x1 = 0.4985 | 0.6289 | –
x1 = 0.5996 | 0.689 | –
x1 = 0.6988 | 0.7668 | –
x1 = 0.8011 | 0.859 | –
x1 = 0.8742 | 0.943 | –
x2 = 0.102 | 0.97 | 0.791
x2 = 0.2035 | 0.867 | 0.707
x2 = 0.3037 | 0.771 | 0.634
x2 = 0.4101 | 0.697 | 0.579
x2 = 0.4979 | 0.644 | 0.538
x2 = 0.6006 | 0.582 | 0.488
x2 = 0.6962 | 0.543 | 0.454
x2 = 0.7971 | 0.499 | 0.419
x2 = 0.9048 | 0.46 | 0.388

CCC[n+]1ccn(C)c1.N[C@@H](CO)C(=O)[O-] + O
Settings | viscosity [mPa·s]
[1], 308.15 K, 100 kPa, x2 = 0.0574 | 996.5

COCC(C)OCC(C)OC (stereo not drawn) + CCCO
[1], 298.15 K, 101 kPa
Settings | viscosity [mPa·s]
x1 = 0.0008 | 1.955
x1 = 0.0409 | 1.775
